Measured values taken from patent US4058512A, “Synthetic peptides having growth promoting activity” (AB Kabi, priority 1975, dated 1977).
Bridge positions count the residues as written; N and C are the ends. Peptide text beside a SMILES is read from it.

System: human embryonic lung fibroblasts
Assay: Growth promoting activity in human embryonic lung fibroblasts, cell counting in a counting chamber
Format: cell-based
Settings: for Growth stimulation in %: per cent increase over basal value with 0.67% calf serum; for No. of cells × 10^6: 0.67% calf serum
Description: Tests of the growth promoting activity have been performed in human embryonic lung fibroblasts and the growth promoting activity is measured by cell counting in a counting chamber and expressed as per cent increase over a basal value obtained with using 0.67% calf serum.

For `C[C@@H](O)[C@H](NC(=O)[C@@H]1CSSC[C@H](NC(=O)[C@H](CO)NC(=O)[C@H](CCC(=O)O)NC(=O)[C@H](CCC(N)=O)NC(=O)[C@@H](N)CC(=O)O)C(=O)N[C@@H](CCCCN)C(=O)NCC(=O)N[C@@H](CCCNC(=N)N)C(=O)N1)C(=O)N[C@@H](CCC(=O)O)C(=O)NCC(=O)N[C@@H](Cc1ccccc1)C(=O)O` [tridecapeptide (cyclic)] (H-DQESCKGRCTEGF-OH; disulfide 5-9), the “Growth stimulation in %” value (1 μg per ml medium) was 14%, the “No. of cells × 10^6” value (1 μg tridecapeptide per ml medium) was 2.35 × 10^6 and the “Growth stimulation in %” value (5 μg per ml medium) was 66%. The “No. of cells × 10^6” value (5 μg tridecapeptide per ml medium) was 3.4 × 10^6, the “Growth stimulation in %” value (10 μg per ml medium) was 60% and the “No. of cells × 10^6” value (10 μg tridecapeptide per ml medium) was 3.3 × 10^6. The “Growth stimulation in %” value (25 μg per ml medium) was 51%, the “No. of cells × 10^6” value (25 μg tridecapeptide per ml medium) was 3.1 × 10^6 and the “Growth stimulation in %” value (50 μg per ml medium) was 31%. The “No. of cells × 10^6” value (50 μg tridecapeptide per ml medium) was 2.7 × 10^6, the “Effect on total number of cells produced” value (dosages higher than 10 μug. per ml. of medium) was “slight inhibitory effect” and the “Effect on total number of cells produced” value (dosages of from 1 to 10 μug. of polypeptide per ml. of medium) was “dose related increase”.
